According to patent US20180284095A1, “BIOMARKERS ASSOCIATED WITH LSD1 INHIBITORS AND USES THEREOF” (Oryzon Genomics, S.A., priority 2015, published 2018):

Tests used:
[1] = target: T1, Human recombinant LSD1 protein (Homo sapiens, UniProt O60341); assay: LSD1 in vitro biochemical assay (Amplex Red, di-methylated H3-K4 peptide)
T1 construct: amino acids 158-end with N-terminal GST tag; purchased BPS Bioscience Inc 50100
Description: The inhibitory activity of a compound of interest against LSD1 can be tested using the method described below: Human recombinant LSD1 protein from BPS Bioscience Inc (catalog reference number 50100: human recombinant LSD1, GenBank accession no. NM_015013, amino acids 158-end with N-terminal GST tag, MW: 103 kDa) was used. In order to monitor LSD1 enzymatic activity and/or its inhibition rate by a test compound, di-methylated H3-K4 peptide (Anaspec) was chosen as a substrate. The demethylase activity was estimated, under aerobic conditions, by measuring the release of H2O2 produced during the catalytic process, using the Amplex® Red hydrogen peroxide/peroxidase assay kit (Invitrogen).
Briefly, a fixed amount of LSD1 was incubated on ice for 15 minutes, in the absence and/or in the presence of at least eight 3-fold serial dilutions of the respective inhibitor (e.g., from 0 to 75 μM, depending on the inhibitor strength). Tranylcypromine (Biomol International) was used as a control for inhibition. Within the experiment, each concentration of inhibitor was tested in duplicate. After leaving the enzyme interacting with the inhibitor, KM of di-methylated H3-K4 peptide was added to each reaction and the experiment was left for 30 minutes at 37° C. in the dark. The enzymatic reactions were set up in a 50 mM sodium phosphate, pH 7.4 buffer. At the end of the incubation, Amplex® Red reagent and horseradish peroxidase (HPR) solution were added to the reaction according to the recommendations provided by the supplier (Invitrogen), and left to incubate for 5 extra minutes at room temperature in the dark. A 1 μM H2O2 solution was used as a control of the kit efficiency. The conversion of the Amplex® Red reagent to resorufin due to the presence of H2O2 in the assay, was monitored by fluorescence (excitation at 540 nm, emission at 590 nm) using a microplate reader (Infinite 200, Tecan). Arbitrary units were used to measure level of H2O2 produced in the absence and/or in the presence of inhibitor. The maximum demethylase activity of LSD1 was obtained in the absence of inhibitor and corrected for background fluorescence in the absence of LSD1. The IC50 value of each inhibitor was calculated with GraphPad Prism Software.

[2] = tested on: S100A9; assay: Microarray gene expression, brain of Hsd:ICR (CD1) mice, MTD study (Example 6); type: in vivo, mouse; conditions: brain day 5, male CD1 mice pool
Method: (§1) Total RNA was extracted from samples using the RNeasy extraction kit (Qiagen). The quality and concentration of the RNA was analyzed using the Agilent 2100 bioanalyzer and NanoDrop™ ND-1000 (Thermo Scientific). Samples with RNA integrity number (RIN)<6.0 were discarded. Total RNA (0.5 μg) amplification and labelling with Cy3 or Cy5 was carried out using the Eberwein mRNA amplification procedure (Van Gelder et al, Proc Natl Acad Sci USA 1990, 87:1663-1667) employing the MessageAmp™ aRNA amplification kit from Ambion (Applied Biosystems) following the manufacturer's instructions with minor modifications. As hybridization controls, plant mRNAs were transcribed from a plasmid containing the Zea mays Xet (xyloglucan endo-transglycosylase) cDNA and from a plasmid containing the Zea mays Zmmyb42 cDNA, independently prepared Cy3 and Cy5 labelled aRNA from these two RNAs using the Eberwein mRNA amplification procedure (as disclosed in Cerdà et al, Gen Comp Endocrinol 2008, 156:470-481).
(§2) The Cy3- and Cy5-labelled cRNAs and spikes were combined and hybridized to the microarray described in Example 2.6 for 17 h at 60° C. using Agilent's gaskets G2534-60002, G2534A hybridization chambers and DNA Hybridization Oven G2545A, according to the manufacturer's instructions. More specifically, equal amounts of Cy3 and Cy5 labeled Xet aRNA as well as equal amounts of Cy3 and Cy5 labeled Zmmyb42 aRNA were spiked into each mixture hybridized to the array. Arrays were washed and raw data were obtained using Agilent's DNA Microarray Scanner G2505B and Feature Extraction software (v10.1). The raw fluorescence intensity data were processed using applicant's proprietary software, and consists in the following operations:
(§3) Data normalization was carried out by an improved version of the nonlinear Q-splines normalization method (Workman et al., Genome Biol 2002, 3(9):research0048.1-0048.16). Normalization results were presented graphically as MA plots, as first described by Dudoit et al (Dudoit et al, Statistica Sinica, 2002, 12:111-139). Each point corresponds to a probe of the DNA array. M values (vertical axis) are the log-differential expression ratios. A values (horizontal axis) are the log-intensities of the spots. M and A are calculated from the Cy5 and Cy3 intensity values as of each spot. The DNA Array data is normalized using an improved version of non-linear Q-Splines normalization described by Workman et al., Genome Biol 2002, 3(9):research0048.1-0048.16. This process is useful to correct the deviation of the M values from the statistical assumption that most of the spots have M=0 in MA plots. […]. The data used to calculate the normalization fitting curve is the totality of the raw measurement dataset, excluding the signals for the probes for the spiked-in plant RNA controls and negative controls. In order to be able to normalize properly the data among all the experiments, the probe-set must include an important group of genes that should have no change (M=0) in the experiment. The normalization function is then applied to all the data, including controls.
(§4) Normalized and log-transformed data were used to calculate log 2 (sample/control) and Fold Change (FC) values. No background subtraction was applied to the signal intensity values during data processing, permitting robust selection of differentially expressed genes with low expression levels at the cost of potential sub-estimation of change when intensity levels are close to the array background level.
(§5) Male Hsd:ICR (CD1®) mice were maintained in air- and temperature-controlled cages with regular supply of water and food. A maximum of 3 mice were raised per cage. Three mice were assigned to each group. Before the first administration, each mouse was labeled and weighed. Test compounds were administered orally using 1 ml syringes using animal feeding needles proper for mice at 10 ml/kg as follows. […]

[3] = tested on: S100A8; assay: as above; type: in vivo, mouse; conditions: brain day 5, male CD1 mice pool
Method: as §1, §2, §3, §4, §5

[4] = tested on: TUBB3; assay: Microarray gene expression, brain of Hsd:ICR (CD1) mice, MTD study (Example 6), housekeeping gene; type: in vivo, mouse; conditions: brain day 5, male CD1 mice pool
Method: as §1, §2, §3, §4, §5

[5] = 3 mg/kg oral x5 days vs vehicle
[6] = 10 mg/kg oral x5 days vs vehicle
[7] = 30 mg/kg oral x5 days vs vehicle
[8] = 100 mg/kg oral x5 days vs vehicle

## NC(=O)CN[C@H]1C[C@@H]1c1ccc(OCc2ccccc2)cc1 (racemic) [Compound 3, 2-(((trans)-2-(4-(benzyloxy)phenyl)cyclopropyl)amino)acetamide]
[1]
  IC50: 0.16 µM

## N[C@H]1CCN(CCN[C@H]2C[C@@H]2c2ccc(-c3cccc(C(F)(F)F)c3)cc2)C1 (racemic) [Compound 5, (S)-1-(2-(((trans)-2-(3′-(trifluoromethyl)-[1,1′-biphenyl]-4-yl)cyclopropyl)amino)ethyl)pyrrolidin-3-amine]
[1]
  IC50: 0.06 µM

## (+) 5-((((trans)-2-(4-(benzyloxy)phenyl)cyclopropyl)amino)methyl)-1,3,4-oxadiazol-2-amine [Compound 2]
[2]; 3 mg/kg oral x5 days
  Hybridization signal sample_Cy5 S100A9: 291.855
[2]; [5]
  log2 (sample/control) S100A9: −0.2512
[2]; 10 mg/kg oral x5 days
  Hybridization signal sample_Cy5 S100A9: 117.175
[2]; [6]
  log2 (sample/control) S100A9: −1.515
[2]; 30 mg/kg oral x5 days
  Hybridization signal sample_Cy5 S100A9: 149.542
[2]; [7]
  log2 (sample/control) S100A9: −1.285
[2]; 100 mg/kg oral x5 days
  Hybridization signal sample_Cy5 S100A9: 45.3442
[2]; [8]
  log2 (sample/control) S100A9: −2.876
[3]; 3 mg/kg oral x5 days
  Hybridization signal sample_Cy5 S100A8: 126.363
[3]; [5]
  log2 (sample/control) S100A8: −0.1015
[3]; 10 mg/kg oral x5 days
  Hybridization signal sample_Cy5 S100A8: 69.9912
[3]; [6]
  log2 (sample/control) S100A8: −1.156
[3]; 30 mg/kg oral x5 days
  Hybridization signal sample_Cy5 S100A8: 80.188
[3]; [7]
  log2 (sample/control) S100A8: −1.029
[3]; 100 mg/kg oral x5 days
  Hybridization signal sample_Cy5 S100A8: 39.3591
[3]; [8]
  log2 (sample/control) S100A8: −1.921
[1]
  IC50: 2.3 µM
[4]; 3 mg/kg oral x5 days
  Hybridization signal sample_Cy5 TUBB3: 3650.69
[4]; [5]
  log2 (sample/control) TUBB3: 0.09458
[4]; 10 mg/kg oral x5 days
  Hybridization signal sample_Cy5 TUBB3: 3706.64
[4]; [6]
  log2 (sample/control) TUBB3: −0.1239
[4]; 30 mg/kg oral x5 days
  Hybridization signal sample_Cy5 TUBB3: 4409.6
[4]; [7]
  log2 (sample/control) TUBB3: −0.002033
[4]; 100 mg/kg oral x5 days
  Hybridization signal sample_Cy5 TUBB3: 2253.74
[4]; [8]
  log2 (sample/control) TUBB3: −0.4338

## (−) 5-((((trans)-2-(4-(benzyloxy)phenyl)cyclopropyl)amino)methyl)-1,3,4-oxadiazol-2-amine [Compound 1]
[2]; 3 mg/kg oral x5 days
  Hybridization signal sample_Cy5 S100A9: 97.9225
[2]; [5]
  log2 (sample/control) S100A9: −1.935
[2]; 10 mg/kg oral x5 days
  Hybridization signal sample_Cy5 S100A9: 46.2723
[2]; [6]
  log2 (sample/control) S100A9: −2.962
[2]; 30 mg/kg oral x5 days
  Hybridization signal sample_Cy5 S100A9: 45.4319
[2]; [7]
  log2 (sample/control) S100A9: −2.9408
[2]; 100 mg/kg oral x5 days
  Hybridization signal sample_Cy5 S100A9: 56.7063
[2]; [8]
  log2 (sample/control) S100A9: −2.792
[3]; 3 mg/kg oral x5 days
  Hybridization signal sample_Cy5 S100A8: 55.2994
[3]; [5]
  log2 (sample/control) S100A8: −1.452
[3]; 10 mg/kg oral x5 days
  Hybridization signal sample_Cy5 S100A8: 39.6385
[3]; [6]
  log2 (sample/control) S100A8: −1.81
[3]; 30 mg/kg oral x5 days
  Hybridization signal sample_Cy5 S100A8: 40.5977
[3]; [7]
  log2 (sample/control) S100A8: −1.859
[3]; 100 mg/kg oral x5 days
  Hybridization signal sample_Cy5 S100A8: 40.4596
[3]; [8]
  log2 (sample/control) S100A8: −1.786
[1]
  IC50: 0.09 µM
[4]; 3 mg/kg oral x5 days
  Hybridization signal sample_Cy5 TUBB3: 3553.16
[4]; [5]
  log2 (sample/control) TUBB3: −0.1852
[4]; 10 mg/kg oral x5 days
  Hybridization signal sample_Cy5 TUBB3: 2424.61
[4]; [6]
  log2 (sample/control) TUBB3: −0.5964
[4]; 30 mg/kg oral x5 days
  Hybridization signal sample_Cy5 TUBB3: 2911.46
[4]; [7]
  log2 (sample/control) TUBB3: −0.1102
[4]; 100 mg/kg oral x5 days
  Hybridization signal sample_Cy5 TUBB3: 3667.46
[4]; [8]
  log2 (sample/control) TUBB3: −0.02579
